Assay results from publication PMC6366436 (Journal of Enzyme Inhibition and Medicinal Chemistry, 2019).

Experiments:
VchCAγ = target: T1, VchCAγ (Vibrio cholerae, UniProt Q9KVT1); conditions: read-out: FAM; TRIS pH 8.3, 0.1 M Na2SO4, 25 °C; 15 min pre-incubation
T1 construct: gene VC_0058

BpsCAβ = target: T2, BpsCAβ (Burkholderia pseudomallei, UniProt Q63Y17); assay type: biochemical; conditions: read-out: FAM
T2 construct: gene BPSL0372

Can2 = Can2 (Cryptococcus neoformans, UniProt Q3I4V7); assay type: biochemical; conditions: read-out: FAM
Chain of Can2 (Q3I4V7 entry or part of it): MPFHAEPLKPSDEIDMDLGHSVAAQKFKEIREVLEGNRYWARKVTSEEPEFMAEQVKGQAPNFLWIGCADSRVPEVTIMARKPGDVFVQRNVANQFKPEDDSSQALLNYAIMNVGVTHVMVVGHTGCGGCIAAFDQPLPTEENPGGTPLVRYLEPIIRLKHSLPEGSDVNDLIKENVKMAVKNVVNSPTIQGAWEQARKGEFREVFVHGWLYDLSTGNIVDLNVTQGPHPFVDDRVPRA

MgaCA = target: T3, MgaCA (Malassezia globosa, UniProt A8Q1N3); assay type: biochemical; conditions: read-out: FAM
T3 construct: gene MGL_1814
T3 sequence (A8Q1N3 entry or part of it): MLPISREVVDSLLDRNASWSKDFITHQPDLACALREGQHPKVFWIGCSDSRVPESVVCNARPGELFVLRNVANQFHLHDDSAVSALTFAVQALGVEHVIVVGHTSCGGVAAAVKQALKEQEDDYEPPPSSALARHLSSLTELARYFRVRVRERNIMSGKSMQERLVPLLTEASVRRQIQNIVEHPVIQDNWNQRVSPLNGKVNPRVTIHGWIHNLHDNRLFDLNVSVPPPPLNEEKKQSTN

TweCAδ = target: T4, TweCAδ (Conticribra weissflogii, UniProt Q5U9J1); assay type: biochemical; conditions: Hepes pH 7.5, 0.1 M Na2SO4, 25 °C; 15 min pre-incubation; read-out: FAM
T4 construct: gene ca1
T4 sequence (Q5U9J1 entry or part of it): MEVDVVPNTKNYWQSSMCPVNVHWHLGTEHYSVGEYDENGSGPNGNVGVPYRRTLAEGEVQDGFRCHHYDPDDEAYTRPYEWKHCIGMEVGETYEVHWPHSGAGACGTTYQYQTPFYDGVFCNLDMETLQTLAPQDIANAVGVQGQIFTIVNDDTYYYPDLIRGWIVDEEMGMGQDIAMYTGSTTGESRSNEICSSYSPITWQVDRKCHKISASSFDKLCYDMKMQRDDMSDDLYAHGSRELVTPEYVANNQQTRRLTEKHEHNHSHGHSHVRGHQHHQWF

PfCA = target: T5, PfCA (Plasmodium falciparum, UniProt Q8IHW5); assay type: biochemical; conditions: Hepes pH 7.5, 0.1 M Na2SO4, 25 °C; 15 min pre-incubation; read-out: FAM
T5 construct: gene PF3D7_1140000
T5 sequence (Q8IHW5 entry or part of it): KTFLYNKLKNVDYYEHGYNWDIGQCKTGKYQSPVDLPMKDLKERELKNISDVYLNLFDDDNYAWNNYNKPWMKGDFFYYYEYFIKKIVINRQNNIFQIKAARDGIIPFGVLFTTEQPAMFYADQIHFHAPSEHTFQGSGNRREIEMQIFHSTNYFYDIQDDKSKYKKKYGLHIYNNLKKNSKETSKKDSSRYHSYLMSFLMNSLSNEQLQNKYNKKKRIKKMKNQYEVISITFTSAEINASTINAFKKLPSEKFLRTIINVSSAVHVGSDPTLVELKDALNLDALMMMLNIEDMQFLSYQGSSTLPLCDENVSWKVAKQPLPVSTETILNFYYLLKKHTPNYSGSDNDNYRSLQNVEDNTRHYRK

CgNce103 = target: T6, CgNce103 (Nakaseomyces glabratus, UniProt Q6FTL6); assay type: biochemical; conditions: read-out: FAM
T6 construct: gene NCE103
T6 sequence (Q6FTL6 entry or part of it): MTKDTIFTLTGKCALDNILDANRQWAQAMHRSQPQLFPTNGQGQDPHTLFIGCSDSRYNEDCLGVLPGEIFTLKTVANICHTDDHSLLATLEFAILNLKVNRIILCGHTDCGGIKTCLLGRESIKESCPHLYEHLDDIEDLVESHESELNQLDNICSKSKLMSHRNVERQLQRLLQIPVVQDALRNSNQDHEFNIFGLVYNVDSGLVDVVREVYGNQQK

SazCA = target: T7, SazCA (Sulfurihydrogenibium azorense, UniProt C1DTU5); assay type: biochemical; conditions: read-out: FAM
T7 construct: gene SULAZ_0541
T7 sequence (C1DTU5 entry or part of it): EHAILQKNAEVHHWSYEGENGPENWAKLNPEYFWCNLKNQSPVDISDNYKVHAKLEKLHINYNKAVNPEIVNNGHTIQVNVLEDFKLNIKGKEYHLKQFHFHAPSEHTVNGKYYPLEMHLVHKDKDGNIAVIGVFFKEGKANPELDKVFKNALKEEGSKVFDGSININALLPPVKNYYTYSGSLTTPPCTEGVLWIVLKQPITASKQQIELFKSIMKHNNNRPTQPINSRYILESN

Carbonate dehydratase = Carbonate dehydratase (Sulfurihydrogenibium sp. (strain YO3AOP1), UniProt B2V8E3); test: biochemical
TcCA = conditions: read-out: FAM; Hepes pH 7.5, 0.1 M Na2SO4, 25 °C; 15 min pre-incubation
BpsCAγ = target: T8, BpsCAγ; conditions: read-out: FAM
T8 construct: gene BpsCAgamma

VchCAα = target: T9, VchCAα (Vibrio cholerae, UniProt Q9KMP6); conditions: read-out: FAM; Hepes pH 7.5, 0.1 M Na2SO4, 25 °C; 15 min pre-incubation
T9 construct: gene VC_A0274
T9 sequence (Q9KMP6 21-239 limits assumed): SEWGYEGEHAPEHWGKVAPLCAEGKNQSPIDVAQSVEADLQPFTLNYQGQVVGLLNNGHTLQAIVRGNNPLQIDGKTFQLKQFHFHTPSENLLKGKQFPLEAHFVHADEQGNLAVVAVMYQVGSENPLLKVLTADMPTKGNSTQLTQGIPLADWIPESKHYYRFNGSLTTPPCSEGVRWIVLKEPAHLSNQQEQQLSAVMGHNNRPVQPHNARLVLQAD

CpsCAγ = conditions: read-out: FAM; TRIS pH 8.3, 0.1 M Na2SO4, 25 °C; 15 min pre-incubation
Chain of CpsCAγ (UPI00051A3E8B entry or part of it): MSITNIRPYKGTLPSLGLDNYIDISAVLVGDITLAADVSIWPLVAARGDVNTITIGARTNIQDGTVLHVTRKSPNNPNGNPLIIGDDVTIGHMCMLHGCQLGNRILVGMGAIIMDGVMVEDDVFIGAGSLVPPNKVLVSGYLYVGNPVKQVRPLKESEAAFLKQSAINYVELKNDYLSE

PhaCAγ = target: T10, PhaCAγ; conditions: read-out: FAM; TRIS pH 8.3, 0.1 M Na2SO4, 25 °C; 15 min pre-incubation
T10 construct: gene PhaCA

NcoCAγ = target: T11, NcoCAγ (Nostoc commune, UniProt A0A2R5FUA4); assay type: biochemical; conditions: TRIS pH 8.3, 0.1 M Na2SO4, 25 °C; 15 min pre-incubation; read-out: FAM
T11 construct: gene NIES4072_30780
T11 sequence (A0A2R5FUA4 entry or part of it): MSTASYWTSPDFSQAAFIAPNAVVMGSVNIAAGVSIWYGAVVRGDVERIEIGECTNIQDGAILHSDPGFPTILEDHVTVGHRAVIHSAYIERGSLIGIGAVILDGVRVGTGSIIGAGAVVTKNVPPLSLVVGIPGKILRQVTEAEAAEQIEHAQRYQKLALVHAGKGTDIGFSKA

VchCAβ = target: T12, VchCAβ (Vibrio cholerae, UniProt A0A086SLX8); test: biochemical
T12 construct: gene can
T12 sequence (A0A086SLX8 1-222): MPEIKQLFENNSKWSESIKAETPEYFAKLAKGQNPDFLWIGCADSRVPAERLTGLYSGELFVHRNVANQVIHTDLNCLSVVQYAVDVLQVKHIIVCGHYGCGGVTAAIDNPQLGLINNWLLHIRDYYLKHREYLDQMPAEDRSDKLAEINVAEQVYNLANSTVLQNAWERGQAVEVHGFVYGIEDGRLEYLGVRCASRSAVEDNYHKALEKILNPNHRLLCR

T1 sequence (Q9KVT1 1-184): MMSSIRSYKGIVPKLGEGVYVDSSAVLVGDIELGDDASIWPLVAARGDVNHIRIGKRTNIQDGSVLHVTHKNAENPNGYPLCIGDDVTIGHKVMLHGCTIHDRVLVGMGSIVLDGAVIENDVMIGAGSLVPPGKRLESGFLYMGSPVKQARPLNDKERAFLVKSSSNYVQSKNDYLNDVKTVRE
T2 sequence (Q63Y17 1-256): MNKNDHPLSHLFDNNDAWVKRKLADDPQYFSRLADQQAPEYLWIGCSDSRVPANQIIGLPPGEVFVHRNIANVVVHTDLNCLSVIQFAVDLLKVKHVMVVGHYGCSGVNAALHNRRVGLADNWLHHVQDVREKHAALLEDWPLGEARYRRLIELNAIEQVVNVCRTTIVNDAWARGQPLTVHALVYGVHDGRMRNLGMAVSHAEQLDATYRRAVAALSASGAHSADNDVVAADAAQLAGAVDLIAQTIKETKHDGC

NC(N)=Nc1nc(CSCCC(N)=NS(N)(=O)=O)cs1 [FAM, Famotidine] showed a Ki (VchCAγ) of 5320 nM, a Ki (BpsCAβ) of 8270 nM and a Ki (Can2) of 107 nM. For the same compound, the Ki (MgaCA) was 42100 nM, the Ki (TweCAδ) was 408 nM and the Ki (PfCA) was 142 nM. It also gave a Ki (CgNce103) of 13.6 nM, a Ki (SazCA) of 124 nM and a Ki (Carbonate dehydratase) of 230 nM. For the same compound, the Ki (TcCA) was 5710 nM, the Ki (BpsCAγ) was 8290 nM and the Ki (VchCAα) was 72.3 nM. The Ki (CpsCAγ) was 89 nM, the Ki (PhaCAγ) was 66.8 nM and the Ki (NcoCAγ) was 1690 nM. The Ki (VchCAβ) was 83900 nM.
